Laboratory results taken from BindingDB's records for patent US20260049089 (Shanghai Apeiron Therapeutics Company, 2026).

Key:
[1] = target: T1, GTPase KRas (G12D) (Homo sapiens, UniProt P01116, G12D); test: KRAS-GTP Protein Assay
Method: 6> Mix the prepared protein solution with the SOS1-GTP solution (at the same concentration as used for the GDP protein assay) in a 1:1 volume ratio. Pre-incubate the mixture at room temperature for 1 hour.7> Add 10 μL of the mixture from Step I to each well of the high-signal control group and compound test wells. For the low-signal control group, add 5 μL of Buffer 1 and 5 μL of the SOS1-GTP mixture to each well. Incubate at room temperature for 1 hour.8> Add 5 μL of a solution containing cRAF and AlphaLISA Nickel Acceptor beads prepared with Buffer 2 to each well. Final concentrations in the reaction: 50 nM for cRAF and 20 μg/mL for AlphaLISA Nickel Acceptor beads. Incubate at room temperature for 1 hour.9> Add 5 μL of an AlphaScreen GSH Donor beads solution prepared with Buffer 2 to each well. Final concentration in the reaction: 20 μg/mL. Incubate at room temperature for 1 hour.10> Measure the signal values using an EnVision plate reader. Excitation wavelength: 680 nm, Emission wavelength: 615 nm.

[2] = target: T1, GTPase KRas (G12D); test: KRAS-GDP Protein Assay
Method: 6> Add 5 μL of KRAS solution prepared with Buffer 1 to each well of the high-signal control group and compound test wells. Add 5 μL of Buffer 1 to each well of the low-signal control group. The final concentration of KRAS in the reaction is 5 nM (initially 40 nM, optimized to 5 nM). Incubate at room temperature for 1 hour.7> Add 5 μL of a solution containing SOS1 and GTP prepared with Buffer 2 to each well. Final concentrations in the reaction: 50 nM for SOS1 (initially 250 nM) and 125 μM for GTP (initially 625 μM). Incubate at room temperature for 1 hour.8> Add 5 μL of a solution containing cRAF and AlphaLISA Nickel Acceptor beads prepared with Buffer 2 to each well. Final concentrations in the reaction: 50 nM for cRAF and 20 μg/mL for AlphaLISA Nickel Acceptor beads. Incubate at room temperature for 1 hour.9> Add 5 μL of an AlphaScreen GSH Donor beads solution prepared with Buffer 2 to each well. Final concentration in the reaction: 20 μg/mL. Incubate at room temperature for 1 hour.10> Measure the signal values using an EnVision plate reader. Excitation wavelength: 680 nm, Emission wavelength: 615 nm.

[3] = target: T1, GTPase KRas (G12D); test: KRAS-GCP Protein Assay
Method: 6> Add 5 μL of KRAS solution prepared with Buffer 1 to each well of the high-signal control group and compound test wells; […]. The final concentration of KRAS in the reaction is 5 nM. Incubate at room temperature for 1 hour.7> Add 5 μL of Buffer 2 to each well. Incubate at room temperature for 1 hour.8> Add 5 μL of a solution containing cRAF and AlphaLISA Nickel Acceptor beads prepared with Buffer 2 to each well. Final concentrations in the reaction: 50 nM for cRAF and 20 μg/mL for AlphaLISA Nickel Acceptor beads. Incubate at room temperature for 1 hour.9> Add 5 μL of an AlphaScreen GSH Donor beads solution prepared with Buffer 2 to each well. Final concentration in the reaction: 20 μg/mL. Incubate at room temperature for 1 hour.10> Measure the signal values using an EnVision plate reader.

T1 sequence (P01116 whole entry G12D): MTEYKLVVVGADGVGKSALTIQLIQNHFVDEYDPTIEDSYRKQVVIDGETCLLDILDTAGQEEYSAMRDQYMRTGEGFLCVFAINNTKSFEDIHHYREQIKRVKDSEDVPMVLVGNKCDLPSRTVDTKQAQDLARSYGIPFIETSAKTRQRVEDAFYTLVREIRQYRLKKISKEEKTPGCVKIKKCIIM

Compound: Oc1cc2c3c(c(F)ccc3c1)CCCCNc1cc3c(N4CC5CCC(C4)N5)nc(OC[C@@]45CCCN4C[C@H](F)C5)nc3c(F)c1-2 [US20260049089, Example 2]
- IC50 [1]: 3.23 nM
- IC50 [2]: 2.87 nM
- IC50 [3]: > 1000 nM

Compound: CN1CCCCc2c(F)ccc3cc(O)cc(c23)-c2c1cc1c(N3CC4CCC(C3)N4)nc(OC[C@@]34CCCN3C[C@H](F)C4)nc1c2F [US20260049089, Example 3]
- IC50 [1]: 3.24 nM
- IC50 [2]: 2.31 nM
- IC50 [3]: > 1000 nM

Compound: O=C1CCCCc2c(F)ccc3cc(O)cc(c23)-c2c(cc3c(N4CC5CCC(C4)N5)nc(OC[C@@]45CCCN4C[C@H](F)C5)nc3c2F)N1 [US20260049089, Example 4]
- IC50 [1]: 3.5 nM
- IC50 [2]: 2.2 nM
- IC50 [3]: 94.4 nM

Compound: Oc1cc2c3c(c(F)ccc3c1)CCCCCNc1cc3c(N4CC5CCC(C4)N5)nc(OC[C@@]45CCCN4C[C@H](F)C5)nc3c(F)c1-2 [US20260049089, Example 5]
- IC50 [1]: 2.63 nM
- IC50 [2]: 2.06 nM
- IC50 [3]: 232 nM
